Test results reported in patent US10934310B2, “Inhibitors of Bruton's tyrosine kinase and method of their use” (JANSSEN PHARMACEUTICA NV, priority 2015, dated 2021).

Molecular target: unphosphorylated-BTK kinase domain (UP-BTK), GST-tagged human BTK (389-659aa) (Homo sapiens (Human), UniProt Q06187)
Assay: BTK Kinase Lanthascreen Binding Assay
Details: compound, 50 nM Tracer 236, 2 nM anti-GST antibody, 60 minutes; pIC50 = negative log of the IC50 in molar
Protocol: BTK Kinase Lanthascreen Binding Assay:
A BTK kinase lanthascreen binding assay monitors compound binding to unphosphorylated-BTK kinase domain (UP-BTK), by competing with a fluorescent labeled tracer. […] Data were analyzed using Xlfit™ version 5.3 from ID Business Solutions (Guildford), Microsoft Excel add-in. pIC50 refers to the negative log of the IC50 in molar.

Chain of unphosphorylated-BTK kinase domain (UP-BTK), GST-tagged human BTK (389-659aa) (Q06187 389-659): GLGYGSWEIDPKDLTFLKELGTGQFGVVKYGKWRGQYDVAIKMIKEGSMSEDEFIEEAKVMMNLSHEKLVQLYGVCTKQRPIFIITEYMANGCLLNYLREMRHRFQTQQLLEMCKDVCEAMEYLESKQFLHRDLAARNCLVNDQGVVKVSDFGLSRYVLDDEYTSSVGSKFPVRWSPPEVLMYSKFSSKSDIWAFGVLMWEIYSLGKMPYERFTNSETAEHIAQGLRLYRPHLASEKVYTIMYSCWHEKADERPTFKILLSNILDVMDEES

BTK_I_binding pIC50	Structure (SMILES)
7.01	N[C@H]1CCCC[C@H]1NC(=O)c1sc2nccc3c2c1NC(=O)N3c1cccc(-c2ccccc2)c1 [Example 141, 5-([1,1′-Biphenyl]-3-yl)-N-((1R,2S)-2-aminocyclohexyl)-4-oxo-4,5-dihydro-3H-1-thia-3,5,8-triazaacenaphthylene-2-carboxamide]
6.87	O=C(N[C@@H]1CCC[C@H](O)C1)c1sc2nccc3c2c1NC(=O)N3c1ccc(Oc2ccccc2)cc1 [Example 142, N-((1R,3S)-3-Hydroxycyclohexyl)-4-oxo-5-(4-phenoxyphenyl)-4,5-dihydro-3H-1-thia-3,5,8-triazaacenaphthylene-2-carboxamide]
6.75	O=C(N[C@H]1CCC[C@H](O)C1)c1sc2nccc3c2c1NC(=O)N3c1ccc(Oc2ccccc2)cc1 [Example 143, N-((1S,3S)-3-Hydroxycyclohexyl)-4-oxo-5-(4-phenoxyphenyl)-4,5-dihydro-3H-1-thia-3,5,8-triazaacenaphthylene-2-carboxamide]
6.69	O=C(N[C@@H]1CCC[C@H]1O)c1sc2nccc3c2c1NC(=O)N3c1cccc(-c2ccccc2)c1 [Example 144, 5-([1,1′-Biphenyl]-3-yl)-N-((1R,2R)-2-hydroxycyclopentyl)-4-oxo-4,5-dihydro-3H-1-thia-3,5,8-triazaacenaphthylene-2-carboxamide]
6.66	N[C@H]1CC[C@H](NC(=O)c2sc3nccc4c3c2NC(=O)N4c2ccc(Oc3ccccc3)cc2)CC1 [Example 146, N-(trans-(1R,4R)-4-Aminocyclohexyl)-4-oxo-5-(4-phenoxyphenyl)-4,5-dihydro-3H-1-thia-3,5,8-triazaacenaphthylene-2-carboxamide]
6.47	N[C@H]1CCC[C@@H]1NC(=O)c1sc2nccc3c2c1NC(=O)N3c1ccc(Oc2ccccc2)cc1 [Example 148, N-((1S,2S)-2-Aminocyclopentyl)-4-oxo-5-(4-phenoxyphenyl)-4,5-dihydro-3H-1-thia-3,5,8-triazaacenaphthylene-2-carboxamide]
6.45	N[C@@H]1CCCC[C@H]1NC(=O)c1sc2nccc3c2c1NC(=O)N3c1ccc(Oc2ccccc2)cc1 [Example 149, N-((1R,2R)-2-Aminocyclohexyl)-4-oxo-5-(4-phenoxyphenyl)-4,5-dihydro-3H-1-thia-3,5,8-triazaacenaphthylene-2-carboxamide]
6.44	Cc1cc(OC(C)C)ccc1N1C(=O)Nc2c(C(=O)N[C@H]3CC[C@@H](NC(=O)/C=C/CN(C)C)C3)sc3nccc1c23 [Example 153, N-((1S,3R)-3-((E)-4-(Dimethylamino)but-2-enamido)cyclopentyl)-5-(4-isopropoxy-2-methylphenyl)-4-oxo-4,5-dihydro-3H-1-thia-3,5,8-triazaacenaphthylene-2-carboxamide]
5.43	CC(C)(C)OC(=O)N[C@H]1CC[C@@H](NC(=O)c2sc3nccc4c3c2NC(=O)N4c2ccc(Oc3ccccc3)cc2)CC1 [Example 163, tert-Butyl ((1S,4S)-4-(4-oxo-5-(4-phenoxyphenyl)-4,5-dihydro-3H-1-thia-3,5,8-triazaacenaphthylene-2-carboxamido)cyclohexyl)carbamate]
8.34	C=CC(=O)N[C@H]1CCC[C@H]1NC(=O)c1sc2nccc3c2c1NC(=O)N3c1cc(-c2ccccc2)ncn1 [Example 167, N-((1R,2S)-2-Acrylamidocyclopentyl)-4-oxo-5-(6-phenylpyrimidin-4-yl)-4,5-dihydro-3H-1-thia-3,5,8-triazaacenaphthylene-2-carboxamide]

Second part, the compound before the results:

Structure (SMILES)	BTK_I_binding pIC50
N[C@H]1CC[C@@H](NC(=O)c2sc3nccc4c3c2NC(=O)N4c2ccc(Oc3ccccc3)cc2)CC1 [Example 145, N-((1S,4S)-4-Aminocyclohexyl)-4-oxo-5-(4-phenoxyphenyl)-4,5-dihydro-3H-1-thia-3,5,8-triazaacenaphthylene-2-carboxamide]	6.69
CC(C)(C)OC(=O)N[C@@H]1CC[C@H](NC(=O)c2sc3nccc4c3c2NC(=O)N4c2ccc(Oc3ccccc3)cc2)C1 [Example 150, tert-Butyl ((1R,3S)-3-(4-oxo-5-(4-phenoxyphenyl)-4,5-dihydro-3H-1-thia-3,5,8-triazaacenaphthylene-2-carboxamido)cyclopentyl)carbamate]	6.40
CC(C)(C)OC(=O)N[C@H]1CC[C@H](NC(=O)c2sc3nccc4c3c2NC(=O)N4c2ccc(Oc3ccccc3)cc2)CC1 [Example 151, tert-Butyl trans-((1R,4R)-4-(4-oxo-5-(4-phenoxyphenyl)-4,5-dihydro-3H-1-thia-3,5,8-triazaacenaphthylene-2-carboxamido)cyclohexyl)carbamate]	6.33
O=C(NCC1(O)CCCCC1)c1sc2nccc3c2c1NC(=O)N3c1ccc(Oc2ccccc2)cc1 [Example 152, N-((1-Hydroxycyclohexyl)methyl)-4-oxo-5-(4-phenoxyphenyl)-4,5-dihydro-3H-1-thia-3,5,8-triazaacenaphthylene-2-carboxamide]	6.25
O=C(N[C@H]1CCC[C@@H](O)C1)c1sc2nccc3c2c1NC(=O)N3c1ccc(Oc2ccccc2)cc1 [Example 157, N-((1S,3R)-3-Hydroxycyclohexyl)-4-oxo-5-(4-phenoxyphenyl)-4,5-dihydro-3H-1-thia-3,5,8-triazaacenaphthylene-2-carboxamide]	6.19
Cc1cc(OC(C)C)ccc1N1C(=O)Nc2c(C(=O)N[C@H]3CC[C@@H](NC(=O)CN(C)C)C3)sc3nccc1c23 [Example 158, N-((1S,3R)-3-(2-(Dimethylamino)acetamido)cyclopentyl)-5-(4-isopropoxy-2-methylphenyl)-4-oxo-4,5-dihydro-3H-1-thia-3,5,8-triazaacenaphthylene-2-carboxamide]	6.11
N[C@@H]1CC[C@H](NC(=O)c2sc3nccc4c3c2NC(=O)N4c2ccc(Oc3ccccc3)cc2)C1 [Example 164, N-((1S,3R)-3-Aminocyclopentyl)-4-oxo-5-(4-phenoxyphenyl)-4,5-dihydro-3H-1-thia-3,5,8-triazaacenaphthylene-2-carboxamide]	5.19

Same assay, conditions: read-out: BTK_I_binding pIC50 (converted)

IC50 [µM]	Structure (SMILES)
> 1	CCC(=O)N[C@@H]1CCC[C@@H]1NC(=O)c1sc2nccc3c2c1NC(=O)N3c1ccnc(-c2ccccc2)c1 [Example 159, 4-Oxo-5-(2-phenylpyridin-4-yl)-N-((1S,2R)-2-propionamidocyclopentyl)-4,5-dihydro-3H-1-thia-3,5,8-triazaacenaphthylene-2-carboxamide]
> 1	Cc1cc(OC(C)C)ccc1N1C(=O)Nc2c(C(=O)N[C@@H]3CCCC[C@@H]3N)sc3nccc1c23 [Example 160, N-((1R,2S)-2-Aminocyclohexyl)-5-(4-isopropoxy-2-methylphenyl)-4-oxo-4,5-dihydro-3H-1-thia-3,5,8-triazaacenaphthylene-2-carboxamide]
> 1	CNCC(=O)N[C@@H]1CC[C@H](NC(=O)c2sc3nccc4c3c2NC(=O)N4c2ccc(OC(C)C)cc2C)C1 [Example 161, 5-(4-Isopropoxy-2-methylphenyl)-N-((1S,3R)-3-(2-(methylamino)acetamido)cyclopentyl)-4-oxo-4,5-dihydro-3H-1-thia-3,5,8-triazaacenaphthylene-2-carboxamide]
